Data: US20080038349A1, “Peptide-Pna Chimera Targeting Inducible Nitric Oxide Synthetase” (priority 2004, published 2008)
{Gly} = glycine residue at the PNA end written 3'; {Lys} = lysine residue at the PNA end written 5'

Key:
macrophags iNOS = details: in vitro, macrophages; cited from earlier work
[1] = system: Sense 5′-3′: GAA AGA GGA AAA GG; test: Hybridization experiments (Tm from UV melting curves); format: binding; details: for Tm (temperature of melting, hybridization): vs sense DNA, duplex 5 μM, 10 mM phosphate buffer, 100 mM NaCl, 0.1 mM EDTA, pH=7
Experimental: The DNA sequences used in the hybridization experiments were purchased from (Sigma; USA). A PNA sequence was purchased from Bio-Synthesis Inc. (Lewisville, USA). All hybrid samples reported were first incubated at 90° C. for 5 minutes, then slowly cooled at room temperature. The Duplex concentration of the various samples was 5 μM. All hybridization experiments were carried out in a 10 mM phosphate buffer, 100 mM NaCl, 0.1 mM EDTA, pH=7. Temperature was monitored by an internal thermocouple, at an accuracy of ±0.3° C. Melting curves were recorded by heating the samples (1° C./min) with a 2-min. hold time by UV signal at 260 nm. Melting temperatures were taken as the maximum of the first derivative of the melting curves. UV absorbance measurements were performed on a Varian Cart 5E UV-VIS-NIR spectrophotometer equipped with a Cary temperature controller, in 1-cm quartz cells.
The modifications on the PNA chain although improving bioavailability can diminish activity (hybridization). To examine the effect of modifications on activity properties an experiment was conducted to examine the hybridization properties (determined by changes in temperature of melting or Tm) KBP-10 sequence. Tm value (39.5° C.) was almost the same as predicted calculated value based on sequence (40° C.).

cells in culture = details: cited from earlier work
Multiple Sclerosis Model = test: Multiple sclerosis model (MOG 35-55 inoculated mice); format: in vivo; details: 10 mg/kg for 10 consecutive days
Experimental: Mice (female, Cpb 57B1/6; Harlan) were inoculated with ecephalitogenic peptide (MOG 35-55; synthesized at the Hebrew university) emulsified with CFA and pertussis toxin (Sigma) and in the same time were treated with CH(K)6HC-O-5′CTTTCTCCTTTTCC3′-O-HAIYPRH (KBP-11; 10 mg/kg; n=3) or with vehicle solution (control group; n=4) for 10 consecutive days, starting a day after the inoculation of MOG.
At the end the experiment (day 30) animals were scarified and brain tissue were send to histological (H&E analysis) and immunohistochemical (iNOS expression) analysis.

[2] = starting a day after MOG inoculation, n=3

Substance: 3′-Gly-CTTTCTCCTTTTCC-Lys 5′ (all peptide nucleic acid (PNA), 5' {Lys}, 3' {Gly}) [PNA targeting macrophage iNOS]
- iNOS expression (macrophags iNOS): specifically diminished its expression

Substance: CTTTCTCCTTTTCC (chemistry not given here) [Oligodeoxynucleotide, reference compound]
- Tm (temperature of melting, hybridization) [1]: 46.96 °C

Substance: CHK6HC
- Transfection of cells in culture (cells in culture): improved transfection of cells in culture

Substance: CH(K)6HC-O-5′CTTTCTCCTTTTCC3′-O-HAIYPRH [KBP-11]
- Incidence (Multiple Sclerosis Model; [2]): 1/3
- Mean disease duration (Multiple Sclerosis Model; [2]): 6 days
- Mean Score (Disease burden) (Multiple Sclerosis Model; clinical score 0-6): 0.4 ± 0.16
- Effect of peptide modification on hybridization properties ([1]; modified PNA vs. ODN, FIG. 1): did not affect the hybridization properties
- Tm (temperature of melting, hybridization) [1]: 39.00 °C
